# Experimental data taken from patent publication USRE30241E, “Esters of 3-(hydroxy or hydroxymethyl)-4-hydroxyphenyl aminomethyl ketones” (Sterling Drug Inc., priority 1970, dated 1980).
# Where two headings read alike, the source gives them in different places.
# Tests used:
# [1] = Solubility and pH of salts
# [2] = test system: guinea pig bronchioles constricted by carbachol; assay: Bronchodilator Test Method II, in vitro perfused guinea pig lung; conditions: for ED50: carbachol (Doryl) 1:5 million
# Protocol: In this method bronchodilator activity in vitro was determined by testing the effect of graded doses of the test compounds on guinea pig bronchioles constricted by carbachol, using the technique reported by Sollman and von Oettingen, Proc. Soc, Exp. Biol. Med., 25,692 (1928) as modified by Tainter, Pedden, and James, J. Pharm. Exp. Ther., 51, 371 (1934) and by Luduena, von Euler, Tullar, and Lands, Arch. intern. Pharmacol., III, 392 (1957).
# [3] = test system: carbachol- or histamine-induced bronchoconstriction; assay: Bronchodilator Test Method I, anesthetized dog, intravenous activity; assay type: in vivo; conditions: Canis lupus familiaris, read-out: Bronchodilatation; for inhibition in vivo at 0.0285 mg/kg: 28.5 mcg/kg i.v.; for inhibition in vivo at 0.114 mg/kg: 114 mcg/kg i.v.; for inhibition in vivo at 0.228 mg/kg: 228 mcg/kg i.v.; for inhibition in vivo at 0.0012 mg/kg: 1.2 mcg/kg i.v.; for inhibition in vivo at 0.003 mg/kg: 3.0 mcg/kg i.v.; for inhibition in vivo at 0.005 mg/kg: 5 mcg/kg i.v.; for inhibition in vivo at 0.02 mg/kg: 20 mcg/kg i.v.; for inhibition in vivo at 0.04 mg/kg: 40 mcg/kg i.v.
# Method in brief: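 Pentobarbital-anesthetized (30 mg/kg i.v.), open-chest, artificially ventilated dogs were given i.v. carbachol (4-6 µg/kg) or histamine diphosphate (35-45 µg/kg). Test compound was given i.v. mixed with, after, or 1-10 min before the constrictor.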
# [4] = test system: carbachol- or histamine-induced bronchoconstriction; assay: Bronchodilator Test Method I, anesthetized dog, intraduodenal activity; assay type: in vivo; conditions: Canis lupus familiaris, read-out: Bronchodilation; for inhibition in vivo at 0.02 mg/kg: 20 mcg/kg (salt) intraduodenal; for inhibition in vivo at 0.08 mg/kg: 80 mcg/kg (salt) intraduodenal; for inhibition in vivo at 0.16 mg/kg: 160 mcg/kg (salt) intraduodenal
# Method in brief: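 Pentobarbital-anesthetized (30 mg/kg i.v.) open-chest dogs of 9-18 kg, artificially ventilated; airway pressure recorded via tracheal cannula transducer. Test solution injected intraduodenally; from 5 min, i.v. carbachol (4-6 μg/kg) or histamine diphosphate (35-45 μg/kg) challenges every 30-60 min gauged degree and duration of bronchodilation.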
# [5] = test system: diastolic blood pressure; assay: Effect on diastolic blood pressure in the anesthetized dog; assay type: in vivo
# Protocol: (§1) The effect of a rapid intravenous injection on the heart rate the heart rate was conducted in anesthetized dogs under normal respiration. A few open-chest dogs were also tested. Increase in heart rate was measured by using an electrocardiograph attached to the dog. Readings were taken every 0.5-1 minute for the first 10 minutes and every 2-5 minutes thereafter until recovery. In some cases, several doses and more than one compound were tested alternately in the same dog. The blood pressure effect was simultaneously recorded.
# [6] = test system: heart rate; assay: Cardiovascular studies: effect on the heart rate in the anesthetized dog; assay type: in vivo
# Protocol: as §1
smiles,measurement,setting,value
"CC(C)(C)CC(=O)Oc1ccc(C(O)CNC(C)(C)C)cc1OC(=O)CC(C)(C)C.Cl (stereo not drawn) [Example 7, 3,4-bis(3,3-dimethylbutanoyloxy)-alpha-(tert-butylaminomethyl)benzyl alcohol hydrochloride]",solubility,[1]; water,≥ 10000 µg/mL
same,ED50,[2],23 µg (base)
same,"Duration, Mean",[2]; dose 32 mcg (base),85 ± 17 min
same,inhibition in vivo at 0.0285 mg/kg,"[3]; 5 min, 5 min",28%
same,inhibition in vivo at 0.114 mg/kg,"[3]; 5 min, 5 min",52%
same,inhibition in vivo at 0.228 mg/kg,"[3]; 5 min, 5 min",98%
same,inhibition in vivo at 0.0285 mg/kg,"[3]; 0.5 h, 30 min",32%
same,inhibition in vivo at 0.114 mg/kg,"[3]; 0.5 h, 30 min",42%
same,inhibition in vivo at 0.228 mg/kg,"[3]; 0.5 h, 30 min",77%
same,inhibition in vivo at 0.0285 mg/kg,"[3]; 1 h, 60 min",24%
same,inhibition in vivo at 0.114 mg/kg,"[3]; 1 h, 60 min",33%
same,inhibition in vivo at 0.228 mg/kg,"[3]; 1 h, 60 min",68%
same,inhibition in vivo at 0.0285 mg/kg,"[3]; 2 h, 120 min",24%
same,inhibition in vivo at 0.114 mg/kg,"[3]; 2 h, 120 min",25%
same,inhibition in vivo at 0.228 mg/kg,"[3]; 2 h, 120 min",56%
same,inhibition in vivo at 0.0285 mg/kg,"[3]; 3 h, 180 min",22%
same,inhibition in vivo at 0.114 mg/kg,"[3]; 3 h, 180 min",19%
same,inhibition in vivo at 0.228 mg/kg,"[3]; 3 h, 180 min",50%
same,inhibition in vivo at 0.0285 mg/kg,"[3]; 4 h, 240 min",23%
same,inhibition in vivo at 0.228 mg/kg,"[3]; 4 h, 240 min",44%
"CC(C)(C)NCC(O)c1ccc(OC(=O)C2CCCCC2)c(OC(=O)C2CCCCC2)c1.Cl (stereo not drawn) [Example 15, 3,4-bis(cyclohexanecarbonyloxy)-alpha-(tert-butylaminomethyl)benzyl alcohol hydrochloride]",precipitation on dilution with three volumes of water,[1]; 1 percent solution in dimethyl sulfoxide,no precipitate formed
same,solubility,"[1]; polyethyleneglycol, organic solvent or mixture",< 1000 µg/mL
same,solubility,[1]; water,< 1000 µg/mL
same,ED50,[2],1.3 µg (base)
same,"Duration, Mean",[2]; dose 3.2 mcg (base),53 ± 7 min
same,inhibition in vivo at 0.0012 mg/kg,"[3]; 2 min, 2 min",20%
same,inhibition in vivo at 0.003 mg/kg,"[3]; 2 min, 2 min",36%
same,inhibition in vivo at 0.0012 mg/kg,"[3]; 0.5 h, 30 min",27%
same,inhibition in vivo at 0.0012 mg/kg,"[3]; 1 h, 60 min",8%
same,inhibition in vivo at 0.003 mg/kg,"[3]; 1 h, 60 min",31%
same,inhibition in vivo at 0.0012 mg/kg,"[3]; 2 h, 120 min",0%
same,inhibition in vivo at 0.003 mg/kg,"[3]; 2 h, 120 min",26%
same,inhibition in vivo at 0.003 mg/kg,"[3]; 3 h, 180 min",20%
"COc1ccc(C(=O)Oc2ccc(C(O)CNC(C)(C)C)cc2OC(C)=O)cc1 (stereo not drawn) [Example 145, 3-acetoxy-4-(p-anisoyloxy)-alpha-(tert-butylaminomethyl)benzyl alcohol methanesulfonate]",inhibition in vivo at 0.02 mg/kg,"[4]; 5 min, 5 min",33%
same,inhibition in vivo at 0.08 mg/kg,"[4]; 5 min, 5 min",53%
same,inhibition in vivo at 0.16 mg/kg,"[4]; 5 min, 5 min",82%
same,inhibition in vivo at 0.02 mg/kg,"[4]; 0.5 h, 30 min",32%
same,inhibition in vivo at 0.08 mg/kg,"[4]; 0.5 h, 30 min",48%
same,inhibition in vivo at 0.16 mg/kg,"[4]; 0.5 h, 30 min",81%
same,inhibition in vivo at 0.02 mg/kg,"[4]; 1 h, 60 min",32%
same,inhibition in vivo at 0.08 mg/kg,"[4]; 1 h, 60 min",45%
same,inhibition in vivo at 0.16 mg/kg,"[4]; 1 h, 60 min",81%
same,inhibition in vivo at 0.02 mg/kg,"[4]; 2 h, 120 min",33%
same,inhibition in vivo at 0.08 mg/kg,"[4]; 2 h, 120 min",49%
same,inhibition in vivo at 0.16 mg/kg,"[4]; 2 h, 120 min",63%
same,inhibition in vivo at 0.02 mg/kg,"[4]; 3 h, 180 min",29%
same,inhibition in vivo at 0.08 mg/kg,"[4]; 3 h, 180 min",32%
same,inhibition in vivo at 0.16 mg/kg,"[4]; 3 h, 180 min",48%
same,inhibition in vivo at 0.02 mg/kg,"[4]; 4 h, 240 min",25%
same,inhibition in vivo at 0.08 mg/kg,"[4]; 4 h, 240 min",30%
same,inhibition in vivo at 0.16 mg/kg,"[4]; 4 h, 240 min",32%
same,inhibition in vivo at 0.02 mg/kg,"[4]; 5 h, 300 min",23%
same,inhibition in vivo at 0.16 mg/kg,"[4]; 5 h, 300 min",37%
same,Mean Decrease in Diastolic Blood Pressure,[5]; 1.25 meg/kg (salt) i.v.,7%
same,Mean Decrease in Diastolic Blood Pressure,[5]; 5.0 meg/kg (salt) i.v.,12%
same,Mean Decrease in Diastolic Blood Pressure,[5]; 20 meg/kg (salt) i.v.,20%
same,Mean Maximal Increase in the Heart Rate,[6]; 1.25 mcg/kg (salt) i.v.,9%
same,Mean Maximal Increase in the Heart Rate,[6]; 5.0 mcg/kg (salt) i.v.,13%
same,Mean Maximal Increase in the Heart Rate,[6]; 20 mcg/kg (salt) i.v.,27%
same,ED50,[2],0.25 µg (base)
same,"Duration, Mean",[2]; dose 1 mcg (base),> 72 min
same,inhibition in vivo at 0.005 mg/kg,"[3]; 5 min, 5 min",65%
same,inhibition in vivo at 0.02 mg/kg,"[3]; 5 min, 5 min",87%
same,inhibition in vivo at 0.04 mg/kg,"[3]; 5 min, 5 min",98%
same,inhibition in vivo at 0.005 mg/kg,"[3]; 0.5 h, 30 min",30%
same,inhibition in vivo at 0.02 mg/kg,"[3]; 0.5 h, 30 min",45%
same,inhibition in vivo at 0.04 mg/kg,"[3]; 0.5 h, 30 min",70%
same,inhibition in vivo at 0.005 mg/kg,"[3]; 1 h, 60 min",24%
same,inhibition in vivo at 0.02 mg/kg,"[3]; 1 h, 60 min",35%
same,inhibition in vivo at 0.04 mg/kg,"[3]; 1 h, 60 min",68%
same,inhibition in vivo at 0.005 mg/kg,"[3]; 2 h, 120 min",22%
same,inhibition in vivo at 0.02 mg/kg,"[3]; 2 h, 120 min",27%
same,inhibition in vivo at 0.04 mg/kg,"[3]; 2 h, 120 min",42%
same,inhibition in vivo at 0.04 mg/kg,"[3]; 3 h, 180 min",38%
same,inhibition in vivo at 0.04 mg/kg,"[3]; 4 h, 240 min",24%
